Experimental data published in patent publication US20230133393A1, “DIBORIDE MICROPATTERNED SURFACES FOR CELL CULTURE” (University of Houston System, priority 2020, published 2023).
Entries after “also recorded” stand apart in the source; their conditions may differ.

System: SKOV3 cells
Assay: Effect of SAHA on SKOV3 3D aggregates and cellular bridges cultured on Si—TiB2 substrate
Assay type: cell-based
Experimental: Cell culture of ovarian cancer cell lines: SKOV3 and OVCAR3 cell lines were cultured in Cancer Media (CM) ([…] with glutamine (02-0205 VWR Life Science), 1% antibiotics (Sigma-Aldrich A5955), and 0.1% insulin (ABM TM053)). For cell culture on substrates CM was supplemented with 10 ng/mL human FGF2 (Sigma-Aldrich F0291)+1% heparin (Sigma-Aldrich H3393). Cells were cultured in a humidified incubator at 37° C. with 5% CO2.
The inventors used their Si-diborides substrates (described in [200]) for culture of SKOV3 (ATCC® HTB-77™) cancer cells of high invasive potential. Cells were seeded on Si—TiB2 substrates (2×2 cm) at a density of 600/mm^2, and each substrate will be placed in a well of a 24-well dish and cultured in RPMI 1640 with glutamine, 20% FBS, 1% antibiotics, 0.01 mg/mL Insulin, 10 ng/ml FGF2 and 1% heparin 1 over 10 days to establish a monolayer (days 1-3) or allowed to form 3D aggregates (days 4-10). A 2×2 cm substrate can accommodate at least 500, 300 μm circle patterns (aka 500 3D aggregates of ˜150-200 μm diameter and 60-80 μm thickness). Based on preliminary data, the rate of “cellular bridge” formation is 13%/substrate or 50%/aggregate. As shown in FIGS. 9A-C, FIGS. 10A-C and FIG. 11A-B, highly invasive SKOV3 begin as monolayers and then self-assemble to form 3D aggregates. Importantly, the inventors are able to control dynamics of aggregation and size and number of aggregates by tuning pattern geometry and cell seeding density. 3D aggregates of static (compact aggregates without any migratory sequalae) and migratory phenotype (identified via cells migrating away from an aggregate and establishing connections with neighboring aggregates; see FIGS. 12A-B) can be identified post-culturing at day 2, day 4, day 6 and day 8. […] Thus, these capture time points have data on cell monolayers (Day 2), self-assembly (Days 3-4) and compact 3D aggregates (Days 5-8). Migratory 3D aggregate phenotypes are visible at Days 5 with maximum numbers of cellular bridges across aggregates seen at Days 6-7. […]

O=C(CCCCCCC(=O)Nc1ccccc1)NO [SAHA, suberoylanilide hydroxamic acid]
effect on size of 3D aggregates (3 μM SAHA, treatment on day 7 post-seeding): reduce the size of 3D aggregates | effect on cellular bridges (invading multicellular microstructures) (3 μM SAHA, treatment on day 7 post-seeding, imaged Day 9): disassociates invading multicellular microstructures; also recorded: loss of cellular bridges | reduction in size (aggregate depth) post-treatment with SAHA (SKOV3 3D aggregates on Si—TiB2, treated day 7 for 48 hours, compared to controls, mean±SEM, n=3, p<0.001): ~50%
